These results are taken from patent US20250296959A1, “B7-H3 TARGETING PEPTIDES AND CONSTRUCTS THEREOF” (Mariana Oncology Inc., priority 2024, published 2025).

The target in the test is T1, human 4lg B7-H3 (Homo sapiens, UniProt Q5ZPR3).
T1 sequence (Q5ZPR3 29-534): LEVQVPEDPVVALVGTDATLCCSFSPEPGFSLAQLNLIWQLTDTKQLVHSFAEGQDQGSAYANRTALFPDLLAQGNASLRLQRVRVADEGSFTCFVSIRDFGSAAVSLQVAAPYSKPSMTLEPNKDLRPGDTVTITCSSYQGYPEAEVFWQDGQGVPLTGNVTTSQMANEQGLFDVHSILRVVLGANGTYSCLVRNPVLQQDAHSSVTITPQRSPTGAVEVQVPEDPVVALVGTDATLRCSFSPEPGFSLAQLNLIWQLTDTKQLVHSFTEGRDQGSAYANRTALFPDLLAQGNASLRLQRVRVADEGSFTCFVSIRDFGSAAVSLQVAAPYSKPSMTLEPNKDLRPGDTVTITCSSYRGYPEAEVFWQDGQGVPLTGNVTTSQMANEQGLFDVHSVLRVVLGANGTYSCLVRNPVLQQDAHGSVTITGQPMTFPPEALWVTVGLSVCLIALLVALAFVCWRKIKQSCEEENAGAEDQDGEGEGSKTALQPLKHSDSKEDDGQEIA
In words: Affinity determination by surface plasmon resonance (SPR) to 4Ig B7-H3. The conditions noted are these: 4Ig B7-H3. A general note: SPR reads the build-up and loss of mass on a sensor chip optically.

[1] abbreviates: SPR KD—37° C., 37° C. flow cell temperature.
[2] abbreviates: SPR KD—25° C., 25° C. flow cell temperature.

Starred links: 1 amine or outer side, 2 acyl side, 3 side chain; linkers in the order of their positions; H or OH if unused. Positions of bridges follow the written chain, without caps; N, C: chain ends. Non-standard residues stand in square brackets, D forms with d. Residues, ends and D or L forms follow the SMILES beside them. Groups on a side chain read outwards from the residue. *: point of attachment. X4 = O=C(O)CN1CCN(CC(=O)O)CCN([C@H](CCC(=O)*)C(=O)O)CCN(CC(=O)O)CC1; Ala(piperidin-4-yl) = O=C([C@H](CC1CCN([*:3])CC1)N[*:1])[*:2]; DOTA = O=C(O)CN1CCN(CC(=O)O)CCN(CC(=O)*)CCN(CC(=O)O)CC1; Trp(4-OMe) = COc1cccc2[nH]cc(C[C@H](N)C(=O)O)c12; Butanoyl(4-(4-I-phenyl)) = O=C(CCCc1ccc(I)cc1)*; Trp(5-F) = N[C@@H](Cc1c[nH]c2ccc(F)cc12)C(=O)O; X13 = NC(=O)N1CCC(C[C@H](N[*:1])C(=O)[*:2])CC1; X1 = C[C@@H](c1ccccc1)[C@H](N[*:1])C(=O)[*:2]; PEG8 = NCCOCCOCCOCCOCCOCCOCCOCCOCCC(=O)O; Ala(4-THP) = N[C@@H](CC1CCOCC1)C(=O)O; Phe(2-F) = N[C@@H](Cc1ccccc1F)C(=O)O; Val(3-OH) = CC(C)(O)[C@H](N)C(=O)O; aIle = CC[C@@H](C)[C@H](N)C(=O)O; PEG4 = NCCOCCOCCOCCOCCC(=O)O; Tle = CC(C)(C)[C@H](N)C(=O)O; hLeu = CC(C)CC[C@H](N)C(=O)O Bounds are passed on as bounds.

`CC(=O)N[C@@H](CCC(C)C)C(=O)N[C@@H](Cc1ccc(O)cc1)C(=O)N[C@H]1CSSC[C@@H](C(=O)N[C@@H](Cc2c[nH]c3ccc(F)cc23)C(=O)N[C@@H](Cc2ccccc2)C(=O)N[C@H](C(=O)N[C@H](CCC(=O)O)C(N)=O)C(C)(C)O)CC(=O)[C@H](Cc2ccc(O)cc2)NC(=O)[C@H](C(C)C)NC(=O)[C@H](CC(=O)O)NC(=O)[C@H](C[C@H]2CC[C@H](O)CC2)NC(=O)[C@H](CCCCNC(=O)CN2CCN(CC(=O)O)CCN(CC(=O)O)CCN(CC(=O)O)CC2)NC(=O)CNC(=O)[C@H](C(C)(C)C)NC1=O` [compound 425, Ac-hLeu-Y-C-Tbg-G-Lys(DOTA)-4OHCha(pk2)-D-V-Y-C-5FW-F-hydroxyVal-dGlu-CONH2]: the Kd (as a rule, the constant that tells how readily two partners part at equilibrium) under setting [1] fell in the range of 1 to 10 nM.

For `CC(=O)N[C@@H](CCC(C)C)C(=O)N[C@@H](Cc1ccc(O)cc1)C(=O)N[C@H]1CSSC[C@@H](C(=O)N[C@@H](Cc2c[nH]c3ccc(F)cc23)C(=O)N[C@@H](Cc2ccccc2F)C(=O)N[C@H](C(=O)N[C@H](CCCCNC(=O)CN2CCN(CC(=O)O)CCN(CC(=O)O)CCN(CC(=O)O)CC2)C(N)=O)[C@@H](C)O)NC(=O)[C@H](Cc2ccc(O)cc2)NC(=O)[C@H](C(C)C)NC(=O)[C@H](CC(=O)O)NC(=O)[C@H](Cc2ccc(O)cc2)NC(=O)[C@H](CCCCN)NC(=O)CNC(=O)[C@H](C(C)C)NC1=O` [compound 164, Ac-hLeu-Y-C-V-G-K-Y-D-V-Y-C-5FW-2FPhe-Thr-dLys(DOTA)-CONH2] (Ac-[hLeu]YCVGKYDVYC[Trp(5-F)][Phe(2-F)]T[dK](DOTA)-NH2; disulfide 3-11), the Kd under setting [2] is less than 1 nM.

`CC(=O)N[C@@H](CCC(C)C)C(=O)N[C@@H](Cc1ccc(O)cc1)C(=O)N[C@H]1CSSC[C@@H](C(=O)N[C@@H](Cc2c[nH]c3ccc(F)cc23)C(=O)N[C@@H](Cc2ccccc2)C(=O)N[C@@H](C(=O)N[C@H](CCCCNC(=O)CN2CCN(CC(=O)O)CCN(CC(=O)O)CCN(CC(=O)O)CC2)C(N)=O)[C@H](C)O)NC(=O)[C@H](Cc2ccc(O)cc2)NC(=O)[C@H](C(C)C)NC(=O)[C@H](CC(=O)O)NC(=O)[C@H](Cc2ccc(O)cc2)NC(=O)[C@H](CCCCN)NC(=O)CNC(=O)[C@H](C(C)C)NC1=O` [compound 163, Ac-hLeu-Y-C-V-G-K-Y-D-V-Y-C-5FW-F-dThr-dLys(DOTA)-CONH2] (Ac-[hLeu]YCVGKYDVYC[Trp(5-F)]F[dT][dK](DOTA)-NH2; disulfide 3-11) had a Kd under setting [2] of 10 to 100 nM.

Compound `CC(=O)N[C@@H](CCC(C)C)C(=O)N[C@@H](Cc1ccc(O)cc1)C(=O)N[C@H]1CSSC[C@@H](C(=O)N[C@@H](Cc2c[nH]c3ccc(F)cc23)C(=O)N[C@H](C(=O)N[C@H](C(=O)N[C@H](C)C(=O)O)C(C)(C)O)[C@@H](C)c2ccccc2)NC(=O)[C@H](Cc2ccc(O)cc2)NC(=O)[C@H](C(C)C)NC(=O)[C@H](CC(=O)O)NC(=O)[C@H](CC2CCN(C(=O)CCOCCOCCOCCOCCNC(=O)CN3CCN(CC(=O)O)CCN(CC(=O)O)CCN(CC(=O)O)CC3)CC2)NC(=O)[C@H](CC2CCN(C(N)=O)CC2)NC(=O)CNC(=O)[C@H](C(C)(C)C)NC1=O` [compound 514, Ac-hLeu-Y-C-Tbg-G-Pip(CONH2)Ala-Pip(PEG4-DOTA)Ala-D-V-Y-C-5FW-[(2S, 3S)beta-Me-Phe]-hydroxyVal-dAla-COOH] (Ac-[hLeu]YC[Tle]G[X13][Ala(piperidin-4-yl)]([PEG4-DOTA])DVYC[Trp(5-F)][X1][Val(3-OH)][dA]-OH; disulfide 3-11) came in with a Kd under setting [1] of less than 1 nM.

`CC(=O)N[C@@H](CCC(C)C)C(=O)N[C@@H](Cc1ccc(O)cc1)C(=O)N[C@H]1CSSC[C@@H](C(=O)N[C@@H](Cc2c[nH]c3ccc(F)cc23)C(=O)N[C@@H](Cc2ccccc2)C(=O)N[C@H](C(=O)N[C@H](CCC(=O)O)C(N)=O)C(C)(C)O)NC(=O)[C@H](Cc2ccc(O)cc2)NC(=O)[C@H](C(C)C)NC(=O)[C@H](CC(=O)O)NC(=O)[C@H](CC2CCOCC2)NC(=O)[C@H](CC2CCN(C(=O)CC[C@H](C(=O)O)N3CCN(CC(=O)O)CCN(CC(=O)O)CCN(CC(=O)O)CC3)CC2)NC(=O)CNC(=O)[C@H](C(C)(C)C)NC1=O` [compound 476, Ac-hLeu-Y-C-Tbg-G-Pip(R-DOTAGA)Ala-ThpA-D-V-Y-C-5FW-F-hydroxyVal-dGlu-CONH2] (Ac-[hLeu]YC[Tle]G[Ala(piperidin-4-yl)](X4)[Ala(4-THP)]DVYC[Trp(5-F)]F[Val(3-OH)][dE]-NH2; disulfide 3-11): the Kd under setting [1] is less than 1 nM.

Consider `COc1cccc2[nH]cc(C[C@H](NC(=O)[C@@H]3CSSC[C@H](NC(=O)[C@H](Cc4ccc(O)cc4)NC(=O)[C@H](CCC(C)C)NC(C)=O)C(=O)N[C@@H](C(C)(C)C)C(=O)NCC(=O)N[C@@H](CC4CCNCC4)C(=O)N[C@@H](CC4CCOCC4)C(=O)N[C@@H](CC(=O)O)C(=O)N[C@@H](C(C)C)C(=O)N[C@@H](Cc4ccc(O)cc4)C(=O)N3)C(=O)N[C@@H](Cc3ccccc3)C(=O)N[C@H](C(=O)N[C@H](CCCCNC(=O)CN3CCN(CC(=O)O)CCN(CC(=O)O)CCN(CC(=O)O)CC3)C(=O)O)C(C)(C)O)c12` [compound 493, Ac-hLeu-Y-C-Tbg-G-PipAla-ThpA-D-V-Y-C-4MeOW-F-hydroxyVal-dLys(DOTA)-COOH] (Ac-[hLeu]YC[Tle]G[Ala(piperidin-4-yl)][Ala(4-THP)]DVYC[Trp(4-OMe)]F[Val(3-OH)][dK](DOTA)-OH; disulfide 3-11), for which, under setting [1], the Kd lay within 1 to 10 nM.

Under setting [1], `CC(C)CC[C@H](NC(=O)CCOCCOCCOCCOCCOCCOCCOCCOCCNC(=O)CCCc1ccc(I)cc1)C(=O)N[C@@H](Cc1ccc(O)cc1)C(=O)N[C@H]1CSSC[C@@H](C(=O)N[C@@H](Cc2c[nH]c3ccc(F)cc23)C(=O)N[C@@H](Cc2ccccc2)C(=O)N[C@H](C(=O)N[C@H](CCCCNC(=O)CN2CCN(CC(=O)O)CCN(CC(=O)O)CCN(CC(=O)O)CC2)C(=O)O)C(C)(C)O)NC(=O)[C@H](Cc2ccc(O)cc2)NC(=O)[C@H](C(C)C)NC(=O)[C@H](CC(=O)O)NC(=O)[C@H](CC2CCOCC2)NC(=O)[C@H](CCCCN)NC(=O)CNC(=O)[C@H](C(C)(C)C)NC1=O` [compound 365, AB-PEG8-hLeu-Y-C-Tbg-G-K-ThpA-D-V-Y-C-5FW-F-hydroxyVal-dLys(DOTA)-COOH] ({Butanoyl(4-(4-I-phenyl))-PEG8}-[hLeu]YC[Tle]GK[Ala(4-THP)]DVYC[Trp(5-F)]F[Val(3-OH)][dK](DOTA)-OH; disulfide 3-11) gave a dissociation constant Kd of 10 to 100 nM.

As to `CC[C@@H](C)[C@@H]1NC(=O)[C@H](CC(=O)O)NC(=O)[C@H](Cc2ccc(O)cc2)NC(=O)[C@H](CCCCN)NC(=O)CNC(=O)[C@H](C(C)C)NC(=O)[C@@H](NC(=O)[C@H](Cc2ccc(O)cc2)NC(=O)[C@H](CCC(C)C)NC(C)=O)CSSC[C@@H](C(=O)N[C@@H](Cc2c[nH]c3ccccc23)C(=O)N[C@@H](Cc2ccccc2)C(=O)N[C@H](C(=O)N[C@H](CCCCNC(=O)CN2CCN(CC(=O)O)CCN(CC(=O)O)CCN(CC(=O)O)CC2)C(N)=O)[C@@H](C)O)NC(=O)[C@H](Cc2ccc(O)cc2)NC1=O` [compound 126, Ac-hLeu-Y-C-V-G-K-Y-D-allolle-Y-C-W-F-Thr-dLys(DOTA)-CONH2] (Ac-[hLeu]YCVGKYD[aIle]YCWFT[dK](DOTA)-NH2; disulfide 3-11), the dissociation constant Kd under setting [2] is less than 1 nM.
